Activity calls are given as the source filed them. The rule behind the calls is not given here.
Assays:
[1] = target: Tyrosine-protein kinase JAK2 (Homo sapiens, UniProt O60674); assay: Inhibition of IL4-induced JAK2 autophosphorylation in human HT-29 cells by SDS-polyacrylamide gel electrophoresis and Western blot method; type: cell-based
[2] = tested on: HT-29; assay: Effect on total JAK2 protein level in IL4-induced human HT-29 cells at 1 uM to 100 uM by SDS-polyacrylamide gel electrophoresis and Western blot method; type: functional, cell-based

Chain of Tyrosine-protein kinase JAK2 (O60674 whole entry): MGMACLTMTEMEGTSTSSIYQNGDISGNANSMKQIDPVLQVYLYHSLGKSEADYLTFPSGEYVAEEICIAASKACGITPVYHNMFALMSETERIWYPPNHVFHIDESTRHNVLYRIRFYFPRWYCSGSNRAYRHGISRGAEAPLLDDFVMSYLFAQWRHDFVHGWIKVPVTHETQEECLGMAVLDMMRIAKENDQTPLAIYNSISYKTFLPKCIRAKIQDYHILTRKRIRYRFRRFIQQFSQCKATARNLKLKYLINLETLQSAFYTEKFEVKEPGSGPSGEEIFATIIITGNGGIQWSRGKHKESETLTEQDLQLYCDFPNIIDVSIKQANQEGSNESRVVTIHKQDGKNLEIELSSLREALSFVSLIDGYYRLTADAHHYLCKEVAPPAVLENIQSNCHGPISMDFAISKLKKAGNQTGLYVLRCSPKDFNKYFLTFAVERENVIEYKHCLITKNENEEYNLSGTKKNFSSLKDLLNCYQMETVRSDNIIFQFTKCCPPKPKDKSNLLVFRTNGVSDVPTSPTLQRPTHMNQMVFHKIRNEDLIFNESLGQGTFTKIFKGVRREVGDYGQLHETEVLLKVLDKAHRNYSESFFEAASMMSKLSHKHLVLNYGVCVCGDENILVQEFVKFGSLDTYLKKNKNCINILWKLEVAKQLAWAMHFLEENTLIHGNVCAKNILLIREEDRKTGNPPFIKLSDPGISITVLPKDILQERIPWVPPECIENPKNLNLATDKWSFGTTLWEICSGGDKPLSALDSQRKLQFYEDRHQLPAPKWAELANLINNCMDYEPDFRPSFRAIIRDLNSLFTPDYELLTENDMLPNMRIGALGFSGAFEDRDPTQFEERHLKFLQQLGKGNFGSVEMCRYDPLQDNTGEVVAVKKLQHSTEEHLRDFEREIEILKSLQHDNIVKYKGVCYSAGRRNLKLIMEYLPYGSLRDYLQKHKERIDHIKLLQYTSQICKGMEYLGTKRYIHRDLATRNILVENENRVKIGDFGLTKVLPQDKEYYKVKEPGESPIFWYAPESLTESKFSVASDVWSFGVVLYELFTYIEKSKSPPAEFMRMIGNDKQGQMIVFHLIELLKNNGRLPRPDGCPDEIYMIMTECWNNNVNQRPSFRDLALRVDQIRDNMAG

Row | IC50 [1] [µM] | Structure (SMILES) | Activity [2]
1 | 6.9 | Cc1ccccc1S(=O)(=O)Nc1cnc(N2CCCCC2)c(C(=O)O)c1 | inactive
2 | 8.5 | COc1cccc(NC(=O)c2cnc(Nc3cccc(OC)c3)c([N+](=O)[O-])c2)c1 | inactive
3 |  | CCCCN(C)c1ncc(NS(=O)(=O)c2ccccc2C)cc1C(=O)O | inactive
4 | 9.5 | COc1cccc(NC(=O)c2cnc(N3CCN(c4ccccc4OC)CC3)c([N+](=O)[O-])c2)c1 | inactive

Source: ChEMBL document CHEMBL3397032, “Computer-aided discovery of aminopyridines as novel JAK2 inhibitors” (Bioorg Med Chem, 2015)
